Measurements from EP2594270A2, “The use of sGC stimulators, sGC activators, alone and combinations with PDE5 inhibitors for the treatment of systemic sclerosis (SSc)” (BIP Patents, priority 2011, dated 2013).
Read-outs that look alike come from different tables or passages of the source.

Columns and labels:
[1] = test system: established Bleomycin-induced skin fibrosis; assay: Established bleomycin-induced skin fibrosis, therapeutic dose-regimen (Example B): dermal thickness, hydroxyproline assay, αSMA immunohistochemistry; type: in vivo, mice
Experimental: (§1) The injected skin areas were fixed in 4% formalin and embedded in paraffin. Histological sections were stained with hematoxylin and eosin for the determination of dermal thickness. The dermal thickness was determined by measuring the largest distance between the epidermal-dermal junction and the dermal-subcutaneous fat junction. The measurements were performed by an examiner blinded to the treatment of the mice.
(§2) To analyze the collagen content in skin samples, hydroxyproline assay was performed. After digestion of punch biopsies (Ø 3mm) in 6M HCl for three hours at 120°C, chloramine T (0.06 M) was added and samples were mixed and incubated for 20 min at room temperature. 3.15 M perchloric acid and 20 % p-dimethylaminobenzaldehyde were added and samples were incubated for additional 20 min at 60 °C. The absorbance was determined at 557 nm.
(§3) The expression of α-smooth muscle actin (αSMA) was analyzed in paraffin embedded sections. After deparaffinization, samples were incubated with 3% bovine serum albumin followed by incubation with 3% H2O2. αSMA positive cells in mouse sections were detected by incubation with monoclonal anti-αSMA antibodies (clone 1A4, Sigma-Aldrich, Steinheim, Germany). Irrelevant isotype antibodies in the same concentration were used for control (Santa Cruz Biotechnology, Santa Cruz, CA, USA). Antibodies labeled with horseradish peroxidase (Dako, Hamburg, Germany) were used as secondary antibodies. The expression of the NICD and αSMA was visualized with DAB peroxidase substrate solution (Sigma-Aldrich). The number of myofibroblasts was counted from 4 different sections of lesional skin for each mouse by an examiner blinded to the treatment of the mice. Table 1: Effects of example 1A on development of Bleomycin-induced skin fibrosis.
Local skin fibrosis was induced in 6-week-old, pathogen-free, female DBA/2 mice (Charles River, Sulzfeld, Germany) by repeated (every other day) subcutaneous injections of bleomycin (0,5 mg/ml in saline) in a defined area of the upper back. Control mice were injected in the same manner with saline only. For all groups the injection volume was 100 µl. The study comprises 4 arms with • a) mice receiving saline injection for 6 weeks (serving as reference) • b) mice receiving Bleomycin injection for 6 weeks • c) mice receiving Bleomycin injection for 6 weeks and additional treatment with example 1A (3 mg/kg) twice a day via gavage for the last 3 weeks • d) mice receiving the first 3 weeks bleomycin injections and the second 3 weeks saline injection.
After 6 weeks the animals were sacrificed and skin samples were obtained for analysis.
Histological analysis, hydroxyproline assay and immunhistochemistry for α-smooth muscel actin were performed as described in the Example 1A section. Table 3: Effects of example 1A (3mg/kg p.o.) on established Bleomycin-induced skin fibrosis Fibrosis parameters expressed as x-fold change with respect to vehicle-treated control (group a)

[2] = Haemodynamic effects in conscious mice with telemetric implants (Example D); type: in vivo; settings: dosages with antifibrotic properties
Experimental: The haemodynamic effects of i.e. example (1A) were analyzed in conscious mice. Telemetric implants (DSI®) were used. Signals were received with RMC1-DSI® receiver plates, compiled and analyzied with PONEMAH® physiology platform software.
The mice received either placebo (tylose), 0.3 mg/kg example 1A, 1mg/kg example 1A, 3mg/kg example 1A (Figure 1). The blood pressure and heart rate was monitored before and after application of placebo or the compounds.

[3] = test system: human dermal fibroblasts; assay: TGFbeta-induced collagen gene expression and hydroxyproline deposition in human dermal fibroblasts in vitro (Example E); type: cell-based
Experimental: The effects of example 1A and vardenafil as standalone and in combination were analyzed in vitro in human dermal fibroblasts in vitro.

[4] = test system: established skin fibrosis in Tsk-mice; assay: Tight skin (Tsk-1) mouse model of systemic sclerosis (Example C): dermal thickness, hydroxyproline assay, αSMA immunohistochemistry; type: in vivo; settings: for hypodermal thickness / Collagen content / Myofibroblast count: oral gavage, x-fold change with respect to vehicle-treated wild type mice; for hypodermal thickness: five weeks of treatment; for Collagen content: hydroxyproline assay; for Collagen content / Myofibroblast count: five weeks; for Myofibroblast count: αSMA positive cells
Experimental: as §1, §2, §3
In addition to the mouse model of bleomycin-induced dermal fibrosis, the tight-skin (Tsk-1) mouse model of systemic sclerosis was used to evaluate the anti-fibrotic potential of test drugs. Due to a dominant mutation in fibrillin-1, the phenotype of Tsk-1 is characterized by an increased hypodermal thickness. Genotyping of Tsk-1 mice was performed by PCR with the following primers: mutated fibrillin-1/ Tsk-1 forward primer: 5' - […] - 3', reverse primer: 5' - […] - 3'. Tsk-1 mice were treated daily with test drug or vehicle, respectively, by oral gavage. In addition, a group of corresponding wild type(pa/pa) mice was treated with vehicle. The treatment was started at an age of five weeks. After five weeks of treatment, mice were sacrificed by cervical dislocation and skin samples were obtained for analysis.
Histological analysis, hydroxyproline assay and immunhistochemistry for α-smooth muscel actin were performed as described in the Example 1A section. Table 4: Effects of example 1A on established skin fibrosis in Tsk-mice
Fibrosis parameters expressed as x-fold change with respect to vehicle-treated wild type mice

[5] = test system: Bleomycin-induced skin fibrosis; assay: Bleomycin-induced skin fibrosis, preventive dose-regimen (Example A): dermal thickness, hydroxyproline assay, αSMA immunohistochemistry; type: in vivo, mice; settings: for Collagen content: hydroxyproline assay; for Myofibroblast count: αSMA positive cells
Experimental: Local skin fibrosis was induced in 6-week-old, pathogen-free, female DBA/2 mice (Charles River, Sulzfeld, Germany) by repeated (every other day) subcutaneous injections of bleomycin (0,5 mg/ml in saline) in a defined area of the upper back. Control mice were injected in the same manner with saline only and served as reference. For all groups the injection volume was 100 µl. Concomitant to bleomycin treatment, the mice were treated orally with test drug or vehicle. Mice were treated a) with vehicle b) with 1 mg/kg example 1A, and c) with 3 mg/kg example 1A, twice a day via gavage for 21 days. After this 3 weeks treatment period, the animals were sacrificed and skin samples were obtained for analysis.
as §1, §2, §3
Fibrosis parameters expressed as x-fold change with respect to vehicle-treated control

[6] = Bleomycin 6 weeks + 3 weeks example 1A (3mg/kg p.o., twice a day, last 3 weeks), x-fold change with respect to vehicle-treated control (group a)
[7] = bleomycin-induced SSc in mice, therapeutic dose-regimen after established fibrosis
[8] = TSK mice, established fibrosis before start of treatment
[9] = bleomycin-induced SSc in mice, preventive dose-regimen
[10] = Bleomycin + 1 mg/kg example 1A, twice a day via gavage for 21 days, x-fold change with respect to vehicle-treated control
[11] = Bleomycin + 3mg/kg example 1A, twice a day via gavage for 21 days, x-fold change with respect to vehicle-treated control

## Nc1nc(-c2nn(Cc3ccccc3F)c3ncccc23)ncc1C1CC1 [Example 1A, 3-(4-Amino-5-cyclopropylpyrimidin-2-yl)-1-(2-fluorobenzyl)-1H-pyrazolo[3,4-b]pyridine]
[1]; [6]
  Myofibroblast count: 1.68 x-fold change
  dermal thickness: 1.26 x-fold change
[1]; [7]
  dermal thickness: significantly reduced
  hydroxyproline content of the skin: significantly reduced
  number of dermal myofibroblasts: significantly reduced
[2]
  heamodynamic profile (blood pressure and heart rate): did not or only moderately, change
[3]
  TGF-induced collagen gene expression: significantly blocked
  TGFbeta-induced Hydroxyproline (HP) deposition: significantly blocked
[3]; listed as example 1A
  TGF-induced collagen gene expression: blocked
[4]; [8]
  dermal thickness: significantly reduced
  hydroxyproline content of the skin: significantly reduced
  number of dermal myofibroblasts: significantly reduced
[4]; Tsk-1 + 1 mg/kg example 1A
  hypodermal thickness: 3.46 x-fold change
  Collagen content: 1.61 x-fold change
  Myofibroblast count: 2.12 x-fold change
[4]; Tsk-1 + 3mg/kg example 1A
  hypodermal thickness: 2.88 x-fold change
  Collagen content: 1.67 x-fold change
  Myofibroblast count: 1.70 x-fold change
[5]; Bleomycin + 1 mg/kg example 1A, twice a day via gavage for 21 days, DBA/2 mice, x-fold change with respect to vehicle-treated control
  dermal thickness: 1.37 x-fold change
[5]; Bleomycin + 3mg/kg example 1A, twice a day via gavage for 21 days, DBA/2 mice, x-fold change with respect to vehicle-treated control
  dermal thickness: 1.19 x-fold change
[5]; [9]
  dermal thickness: significantly reduced
  hydroxyproline content of the skin: significantly reduced
  number of dermal myofibroblasts: significantly reduced
[5]; [10]
  Collagen content: 1.19 x-fold change
  Myofibroblast count: 3.23 x-fold change
[5]; [11]
  Collagen content: 1.11 x-fold change
  Myofibroblast count: 1.90 x-fold change
